In patent publication US20210299079A1, “MONOMETHYL FUMARATE-CARRIER CONJUGATES AND METHODS OF THEIR USE” (Flagship Pioneering Innovations V, Inc., priority 2018, published 2021):

Tests used:
Type in all cases: cell-based
IL-8 = assay: Neutrophil Chemokine Production Assay: IL-8; details: human neutrophils, 12 h
Protocol: (§1) A volume 25 mL of human blood was layered over 15 mL of Histopaque®-1077 and centrifuged at 500 g, R^T, for 30 min with no break applied to the centrifuge. The PBMC band and Histopaque®-1077 layer were removed leaving behind the bottom red layer which was mixed with 40 mL of 1× red blood cell (RBC) lysis buffer (Sigma-Aldrich) was and split into two 50 mL tubes. The volume for both fractions was brought to 50 mL with RBC lysis buffer, mixed by inversion, and then incubated at RT for 10 min. Solutions were centrifuged at 250 g, for 10 min at RT and the supernatant liquids removed. The reddish pellets were re-suspended in 1 mL of RBC lysis buffer and combined. The cell suspension was incubated for 5 min at RT in RBC lysis buffer. After incubation 45 mL of Hanks Balanced Salt Solution with no calcium, magnesium or phenol red (HBSS—) was added, the cell suspension was spun (250 g for 10 min at RT), and supernatant liquids were removed. The white pellet was re-suspended in 1 mL of HBSS—, and cell counts were determined. The neutrophil cell suspension was brought to a concentration of 1.11e6 cells/mL in RPMI complete (Sigma-Aldrich), and 180 μL of cell suspension was transferred to all wells within a sterile 96-well tissue culture treated plate resulting in 2.0×10^5 cells/well. […] After incubation, 10 μL of 2 μg/mL LPS solution in RPMI complete was added to each well except for control wells, which received an additional 10 μL of media. Cells were incubated for 12 h (37° C., 5% CO2), after which plates were centrifuged at 250 g, RT, for 5 min and supernatant liquids were obtained and stored at −80° C. until analyzed via Luminex® Multiplex Assay for various chemokines and cytokines. Three data points were acquired from two different blood donors and averaged.

MIP-1α = assay: Neutrophil Chemokine Production Assay: MIP-1α; details: human neutrophils, 12 h
Protocol: as §1

MIP-1β = assay: Neutrophil Chemokine Production Assay: MIP-1β; details: human neutrophils, 12 h
Protocol: as §1

Caco-2 colonocytes = assay: Human Caco-2 Barrier Integrity Assay, Study 1; details: Caco-2, + cytokines (TNFα, IFNγ, IL-1β), 48 hours
Protocol: Caco-2 colonocytes were maintained at 37° C. and 5% CO2 in Dulbecco's Modified Eagle Medium (DMEM) and supplemented with 10% FBS, 1% NEAA, 1% penicillin-streptomycin. At 70-80% confluency, cells were trypsinized and seeded in 0.4 cm^2 transwell collagen I coated membranes with supplemented DMEM in both apical and basolateral compartments. […] After 48 hours, TEER readings were taken again and viability was measured by CellTiter 96® AQueous One Solution Cell Proliferation Assay (Promega).

TNFα = assay: Cytokine Release from Human PBMCs: TNFα; details: LPS, 24 hours, Concentration 100 μM
Protocol: (§2) Human donor blood (8 mL) was collected in sodium citrate CPT tubes and centrifuged at 1,600×g for 20 minutes at room temperature. Buffy coat containing PBMCs was collected and transferred to a 50 mL conical tube containing 30 mL of RPMI-1640 medium at room temperature (supplemented with penicillin-streptomycin). PBMCs samples were centrifuged at 400×g for 10 minutes at 10° C. The pelleted PBMCs were washed twice in 10 ml of RPMI-1640 medium (supplemented with penicillin-streptomycin), then resuspended in RPMI-1640 medium (supplemented with penicillin-streptomycin, fetal bovine serum, and L-Glutamine). PBMCs were filtered through a 70 micron mesh to remove any cellular debris. […] PBMCs in a 96-well plate were rested for 30 minutes in a 37° C., 5% CO2 incubator, then subsequently treated with 10 μI of indicated compound. After 2 hours 10 μL of LPS (0111:64) 1 mg/mL was added to test wells. After 24 hours of incubation at 37° C., 5% CO2, 100 μL of cell supernatant was collected and transferred to a 96-well plate (non-tissue treated, flat bottom). The plate was centrifuged at 350×g for 5 minutes at room temperature, and then the clear supernatant transferred to a new 96-well plate (non-tissue treated, flat bottom). The remaining cells were tested for viability using CellTiter-Glo® Luminescent Cell Viability Assay (Promega). The supernatant was analyzed for TNFα, IL-6 and IL-1β (kit […] Systems), using Luminex Immunoassay Technology (MAGPIX System).

IL-6 = assay: Cytokine Release from Human PBMCs: IL-6; details: LPS, 24 hours, Concentration 100 μM
Protocol: as §2

IL-1β = assay: Cytokine Release from Human PBMCs: IL-1β; details: LPS, 24 hours, Concentration 100 μM
Protocol: as §2

naïve CD4+ T cells = assay: Human Regulatory T Cell Differentiation Assay; details: 6 days; for Cell viability % DMSO: viability dye; for activity at 1 µM: IL-2, 1 μM
Protocol: Peripheral blood mononuclear cells (PBMCs) from whole blood donated by health volunteers were separated by Ficoll-Paque gradient centrifugation and naïve CD4^+ T cells were subsequently isolated using magnet beads (EasySep™ Human Naïve CD4^+ T Cell Isolation Kit, Cambridge, Mass.). For regulatory T cell (Treg) differentiation assay, naïve CD4^+ T cells were cultured (1-10×10^4 cells) in CTS OpTmizer medium for 6 days and stimulated with 5 ng/ml TGF-β, 100 U/ml IL-2, and ImmunoCult™ Human […] T Cell Activator; Stemcell #10990) with/without our Compounds. Cell viability was determined using a viability dye (eBioscience Fixable Viability Dye eFluor 780: ThermoFisher 65-0865-14) at 1:500 dilution. The cells were gated for Treg, defined as Live, CD11c^−, CD14^−, CD19^−, CD8^−, CD4^+, CD3^+, CD25^+, FOXP3^+. Percent (%) Tregs were calculated as percentage of CD4^+, CD25^+, FOXP3^+ cells over total CD4^+ T cells. Statistical analysis was performed with GraphPad Prism Software Using One-Way ANOVA.

[1] = Homo sapiens, 144 h, TGF-β, read-out: Treg induction % DMSO

CCCC(=O)O [butyrate]
% IL-8 (Vehicle + LPS = 100%) (IL-8; Conc. 500.0 μM): ++ (++ = <70% Vehicle) | % IL-8 (Vehicle + LPS = 100%) (IL-8; Conc. 1000.0 μM): ++ (++ = <70% Vehicle) | % MIP-1α (Vehicle + LPS = 100%) (MIP-1α; Conc. 500.0 μM): +++ (+++ = <50% Vehicle) | % MIP-1α (Vehicle + LPS = 100%) (MIP-1α; Conc. 1000.0 μM): +++ (+++ = <50% Vehicle) | % MIP-1β (DMSO + LPS = 100%) (MIP-1β; Conc. 500.0 μM): +++ (+++ = <50% Vehicle) | % MIP-1β (DMSO + LPS = 100%) (MIP-1β; Conc. 1000.0 μM): +++ (+++ = <50% Vehicle) | % Change in TEER from DMSO (Caco-2 colonocytes; 1 mM): − (<125%: −) | % Change in TEER from DMSO (Caco-2 colonocytes; 3 mM): − (<125%: −) | % Change in TEER from DMSO (Caco-2 colonocytes; 5 mM): ++ (150% > <200%: ++) | TNFα % of DMSO control (TNFα): ++ ((++) <50% DMSO) | IL6 % DMSO control (IL-6): + ((+) 50% > <90% DMSO) | IL1β % DMSO control (IL-1β): − ((−) >110% DMSO)

O=c1c(O)c(-c2ccc(O)c(O)c2)oc2cc(O)cc(O)c12 [quercetin]
% IL-8 (Vehicle + LPS = 100%) (IL-8; Conc. 0.1 μM): − (− = >90% Vehicle) | % IL-8 (Vehicle + LPS = 100%) (IL-8; Conc. 1.0 μM): − (− = >90% Vehicle) | % MIP-1α (Vehicle + LPS = 100%) (MIP-1α; Conc. 0.1 μM): − (− = >90% Vehicle) | % MIP-1α (Vehicle + LPS = 100%) (MIP-1α; Conc. 1.0 μM): − (− = >90% Vehicle) | % MIP-1β (DMSO + LPS = 100%) (MIP-1β; Conc. 0.1 μM): − (− = >90% Vehicle) | % MIP-1β (DMSO + LPS = 100%) (MIP-1β; Conc. 1.0 μM): − (− = >90% Vehicle) | % Change in TEER from DMSO (Caco-2 colonocytes; 100 nM): − (<125%: −) | % Change in TEER from DMSO (Caco-2 colonocytes; 1 μM): + (125% > <150%: +) | Cell viability % DMSO (naïve CD4+ T cells; 100 nM): = (90% > <110%: =) | Cell viability % DMSO (naïve CD4+ T cells; 1 μM): = (90% > <110%: =) | activity at 0.1 µM (naïve CD4+ T cells; Homo sapiens, 144 h, TGF-β, IL-2, 100 nM, read-out: Treg induction % DMSO): 90 to 110% | activity at 1 µM (naïve CD4+ T cells; [1]): 90 to 110% | TNFα % of DMSO control (TNFα): + ((+) 50% > <90% DMSO) | IL6 % DMSO control (IL-6): + ((+) 50% > <90% DMSO) | IL1β % DMSO control (IL-1β): + ((+) 50% > <90% DMSO)

Oc1ccc(C=Cc2cc(O)cc(O)c2)cc1 [resveratrol]
% IL-8 (Vehicle + LPS = 100%) (IL-8; Conc. 10.0 μM): − (− = >90% Vehicle) | % MIP-1α (Vehicle + LPS = 100%) (MIP-1α; Conc. 10.0 μM): + (+ = <90% Vehicle) | % MIP-1β (DMSO + LPS = 100%) (MIP-1β; Conc. 10.0 μM): ++ (++ = <70% Vehicle) | % Change in TEER from DMSO (Caco-2 colonocytes; 10 μM): − (<125%: −) | % Change in TEER from DMSO (Caco-2 colonocytes; 100 μM): +++ (200%>: +++) | Cell viability % DMSO (naïve CD4+ T cells; 1 μM): − (<90%: −) | Cell viability % DMSO (naïve CD4+ T cells; 10 μM): − (<90%: −) | activity at 1 µM (naïve CD4+ T cells; [1]): 110 to 130% | activity at 10 µM (naïve CD4+ T cells; Homo sapiens, 144 h, TGF-β, IL-2, 10 μM, read-out: Treg induction % DMSO): 110 to 130% | TNFα % of DMSO control (TNFα): + ((+) 50% > <90% DMSO) | IL6 % DMSO control (IL-6): + ((+) 50% > <90% DMSO) | IL1β % DMSO control (IL-1β): = ((=) 90% > <110% DMSO)

CC(O)CC(=O)O (stereo not drawn) [β-hydroxybutyrate]
% Change in TEER from DMSO (Caco-2 colonocytes; 200 μM): + (125% > <150%: +) | % Change in TEER from DMSO (Caco-2 colonocytes; 2 mM): − (<125%: −) | TNFα % of DMSO control (TNFα): − ((−) >110% DMSO) | IL6 % DMSO control (IL-6): = ((=) 90% > <110% DMSO) | IL1β % DMSO control (IL-1β): − ((−) >110% DMSO)
